Numbers after ± are expanded uncertainties.

Results on 1 compound are retold here after the NIST ThermoML archive (doi:10.1021/je700234e).

Series [1] can be described thus: Molar enthalpy of transition or fusion. The following applies: Crystal; DSC.
The conditions of series [2]: Crystal; DTA.

Turning to `O=S1(=O)c2ccccc2-c2ccccc21` [dibenzothiophene sulfone], in series [1], the “Molar enthalpy of transition or fusion” value stood at 6.49 ± 0.196 kcal/mol. Besides, in series [2], the Normal melting temperature is 236.1 ± 0.5 °C.
